Experimental data: ChEMBL document CHEMBL1123761, “Inhibition of the mammalian beta-lactamase renal dipeptidase (dehydropeptidase-I) by (Z)-2-(acylamino)-3-substituted-propenoic acids” (J Med Chem, 1987)

Target: T1, Dipeptidase 1 (Sus scrofa, UniProt P22412)
T1 sequence (P22412 whole entry): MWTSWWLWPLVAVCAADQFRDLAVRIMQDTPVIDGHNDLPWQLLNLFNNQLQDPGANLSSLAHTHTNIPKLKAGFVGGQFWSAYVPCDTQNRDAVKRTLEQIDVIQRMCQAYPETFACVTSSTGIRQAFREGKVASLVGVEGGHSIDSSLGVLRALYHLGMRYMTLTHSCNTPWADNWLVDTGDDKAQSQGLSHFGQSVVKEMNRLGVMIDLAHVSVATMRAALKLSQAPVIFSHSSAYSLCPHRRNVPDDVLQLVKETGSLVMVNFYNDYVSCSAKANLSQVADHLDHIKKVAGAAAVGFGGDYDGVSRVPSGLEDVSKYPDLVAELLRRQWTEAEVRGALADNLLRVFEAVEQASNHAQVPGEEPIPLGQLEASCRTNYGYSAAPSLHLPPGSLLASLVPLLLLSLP
Test: Inhibitory activity against beta-lactamase renal dipeptidase

| SMILES | Ki [nM] |
| --- | --- |
| CSCCCCC/C=C(\NC(=O)C1CC1(C)C)C(=O)O (stereo not given) | 150 |
| C=C(NC(=O)C1CC1(C)C)C(=O)O (stereo not given) | 52000 |
| CC1(C)CC1C(=O)N/C(=C\CCCCCC/C=C(\NC(=O)C1CC1(C)C)C(=O)O)C(=O)O (stereo not given) | 92 |
| CC1(C)C[C@@H]1C(=O)N/C(=C\CCCCC[N+](C)(C)C)C(=O)[O-] | 650 |
| C/C=C(\NC(=O)[C@@H]1C[C@H]1c1ccccc1)C(=O)O | 5000 |
| C/C=C(\NC(=O)CC1CCCC1)C(=O)O | 9800 |
| C/C=C(\NC(=O)CCCCCCCCC(=O)O)C(=O)O | 28000 |
| C=CCC/C=C(\NC(=O)C1CC1(C)C)C(=O)O (stereo not given) | 230 |
| C/C=C(\NC(=O)CCCNC(C)=O)C(=O)O | 102000 |
| CN(CCCC/C=C(\NC(=O)C1CC1(C)C)C(=O)O)CC(=O)O (stereo not given) | 560 |
| CC1(C)CC1C(=O)N/C(=C\CCCCCCC[N+](C)(C)Cc1ccccc1)C(=O)[O-] (stereo not given) | 450 |
| C/C=C(\NC(=O)C1C(C)C1(C)C)C(=O)O (stereo not given) | 7200 |
| C/C=C(\NC(=O)[C@@H]1C[C@H]1C)C(=O)O | 1700 |
| CN(C)CCCCC/C=C(\NC(=O)C1CC1(C)C)C(=O)O (stereo not given) | 1280 |
| C/C=C(\NC(=O)[C@H]1[C@H](C)[C@@H]1C)C(=O)O | 4600 |
| C/C=C(\NC(=O)[C@@H]1C[C@@H]1C)C(=O)O | 12000 |
| C/C=C(\NC(=O)C1CCC1C)C(=O)O (stereo not given) | 4700 |
| CNC(CSCCCC/C=C(\NC(=O)[C@H]1CC1(C)C)C(=O)O)C(=O)O (stereo not given in full) | 150 |
| C/C=C(\NC(=O)CCCCCCCCCCC)C(=O)O | 35000 |
| C/C=C(\NC(=O)c1cccc(Cl)c1)C(=O)O | 22000 |
| CC1(C)CC1C(=O)N/C(=C\CCCCC#N)C(=O)O (stereo not given) | 210 |
| CC1(C)C[C@@H]1C(=O)N/C(=C\CCCCSC[C@H](N)C(=O)O)C(=O)O (stereo in doubt; 174) [CILASTATIN] | 210 |
| C/C=C(\NC(=O)[C@H]1[C@@H]2CCCC[C@@H]21)C(=O)O | 4200 |

| SMILES | Ki [nM] |
| --- | --- |
| CC1(C)CC1C(=O)N/C(=C\CCCCSc1ncccc1O)C(=O)O (stereo not given) | 20 |
| CC1(C)CC1C(=O)N/C(=C\CCCCC[N+](C)(C)CCO)C(=O)[O-] (stereo not given) | 910 |
| CN(CCCCC/C=C(\NC(=O)C1CC1(C)C)C(=O)O)CC(=O)O (stereo not given) | 290 |
| CC1(C)CC1C(=O)N/C(=C\CCCCSc1ccccc1)C(=O)O (stereo not given) | 100 |
| C/C=C(\NC(=O)CC(C)CCCC(C)C)C(=O)O (stereo not given) | 4000 |
| C/C=C(\NC(=O)C1CC1(Br)Br)C(=O)O (stereo not given) | 30 |
| C/C=C(\NC(=O)c1ccccc1)C(=O)O | 70000 |
| CCCCCCC/C=C(\NC(=O)C1CC1(C)C)C(=O)O (stereo not given) | 96 |
| C/C=C(\NC(=O)CCCC(=O)OCC)C(=O)O | 39000 |
| C[N+](C)(C)CCCCC/C=C(\NC(=O)C1CC1(Cl)Cl)C(=O)O (stereo not given) | 180 |
| C/C=C(\NC(=O)CCC(C)C)C(=O)O | 14000 |
| CC(C)CC(=O)N/C(=C\CCC(=O)O)C(=O)O | 2700 |
| C/C=C(\NC(=O)C1CC1(Cl)Cl)C(=O)O (stereo not given) | 80 |
| C/C=C(\NC(=O)C1CC(C)(C)C1)C(=O)O | 11200 |
| CC1(C)C[C@@H]1C(=O)N/C(=C\CCCCSC[C@H](N)C(=O)O)C(=O)O (stereo in doubt; 176) [CILASTATIN] | 110 |
| CC1(C)CC1C(=O)N/C(=C\CCCBr)C(=O)O (stereo not given) | 380 |
| CC1(C)CC1C(=O)N/C(=C\CCCCCC#N)C(=O)O (stereo not given) | 82 |
| C/C=C(\NC(=O)c1ccccc1Cl)C(=O)O | 25000 |
| C/C=C(\NC(=O)C=C(C)C)C(=O)O | 28000 |
| COC(=O)CSCCCCC/C=C(\NC(=O)C1CC1(C)C)C(=O)O (stereo not given) | 200 |
| COC(=O)CSCCC/C=C(\NC(=O)C1CC1(C)C)C(=O)O (stereo not given) | 280 |
| CC1(C)CC1C(=O)N/C(=C\CCCCCN)C(=O)O (stereo not given) | 1000 |
| C#CCNCCCCC/C=C(\NC(=O)C1CC1(C)C)C(=O)O (stereo not given) | 740 |

| SMILES | Ki [nM] |
| --- | --- |
| CC(NCCCCC/C=C(\NC(=O)[C@H]1CC1(C)C)C(=O)O)P(=O)(O)O (stereo not given in full) | 160 |
| CC1(C)CC1C(=O)N/C(=C\CCCCCO)C(=O)O (stereo not given) | 230 |
| CC1(C)CC1C(=O)N/C(=C\CCCCCCBr)C(=O)O (stereo not given) | 160 |
| CC1(C)CC1C(=O)N/C(=C\CCCCCNC1=NCCN1)C(=O)O (stereo not given) | 840 |
| C/C=C(\NC(=O)CSCC)C(=O)O | 31000 |
| C/C=C(\NC(=O)C1CCCCCC1)C(=O)O | 12000 |
| C/C=C(\NC(=O)CC(C)CCCC(C)(C)O)C(=O)O (stereo not given) | 67000 |
| CC1(C)CC1C(=O)N/C(=C\CCCCCSCC(N)=O)C(=O)O (stereo not given) | 250 |
| CC1(C)CC1C(=O)N/C(=C\C1CC1)C(=O)O (stereo not given) | 440 |
| CCCCCC/C=C(\NC(=O)C1CC1(C)C)C(=O)O (stereo not given) | 160 |
| CC1(C)CC1C(=O)N/C(=C\CCCCCNC=N)C(=O)O (stereo not given) | 780 |
| C/C=C(\NC(=O)[C@@H]1C[C@H]1C(C)(C)C)C(=O)O | 6500 |
| CCCCC/C=C(\NC(=O)[C@@H]1CC1(C)C)C(=O)O | 8800 |
| CC1(C)CC1C(=O)N/C(=C\CCC(=O)O)C(=O)O (stereo not given) | 140 |
| CC1(C)CC1C(=O)N/C(=C\CCCCCSCC(N)C(=O)O)C(=O)O (stereo not given) | 230 |
| C/C=C(\NC(=O)C1CC12CC2)C(=O)O (stereo not given) | 1600 |
| CC1(C)CC1C(=O)N/C(=C\CC(F)(F)F)C(=O)O (stereo not given) | 240 |
| CN(C)CCCCCCC/C=C(\NC(=O)C1CC1(C)C)C(=O)O (stereo not given) | 520 |
| CCC/C=C(\NC(=O)C1CC1(Br)Br)C(=O)O (stereo not given) | 15 |
| CC1(C)CC1C(=O)N/C(=C\CCCCCS)C(=O)O (stereo not given) | 170 |
| C/C=C(\NC(=O)CCCCCCCCCC)C(=O)O | 19000 |
| CC1(C)CC1C(=O)N/C(=C\CCCCCCC[N+](C)(C)C)C(=O)[O-] (stereo not given) | 570 |
| C/C=C(\NC(=O)CC(C)(C)C)C(=O)O | 20000 |

| SMILES | Ki [nM] |
| --- | --- |
| C/C=C(\NC(=O)CCCc1cccs1)C(=O)O | 10000 |
| CC1(C)CC1C(=O)N/C(=C\CCCCSCC(=O)C(=O)O)C(=O)O (stereo not given) | 160 |
| CCCCC/C=C(\NC(=O)C1CC1(Cl)Cl)C(=O)O (stereo not given) | 60 |
| C/C=C(\NC(=O)CCCNC(=O)CC(C)C)C(=O)O | 52000 |
| CC1(C)CC1C(=O)N/C(=C\CCCSCC(N)C(=O)O)C(=O)O (stereo not given) | 270 |
| CCOC(=S)SCCCCC/C=C(\NC(=O)C1CC1(C)C)C(=O)O (stereo not given) | 44 |
| CC1(C)CC1C(=O)N/C(=C\CCCCSCC(=O)O)C(=O)O (stereo not given) | 130 |
| C/C=C(\NC(=O)CCCCCBr)C(=O)O | 19000 |
| C=CCNCCCCC/C=C(\NC(=O)C1CC1(C)C)C(=O)O (stereo not given) | 870 |
| CC1(C)C[C@@H]1C(=O)N/C(=C\CCCCSC[C@H](N)C(=O)O)C(=O)O (stereo in doubt; 175) [CILASTATIN] | 190 |
| CC1(C)CC1C(=O)N/C(=C\CCCCC[n+]1ccccc1)C(=O)[O-] (stereo not given) | 1090 |
| CCCCC/C=C(/NC(=O)C1CC1(C)C)C(=O)O (stereo not given) | 11200 |
| CC1(C)CC1C(=O)N/C(=C\C1CCCCC1)C(=O)O (stereo not given) | 400 |
| CC1(C)CC1C(=O)N/C(=C\CCCSc1ncccc1O)C(=O)O (stereo not given) | 130 |
| C/C=C(\NC(=O)CCCCCCCC)C(=O)O | 32000 |
| C/C=C(\NC(=O)C(C)C(C)C)C(=O)O (stereo not given) | 3300 |
| C/C=C(\NC(=O)C1(C)CC1(Cl)Cl)C(=O)O (stereo not given) | 164000 |
| C/C=C(\NC(=O)C1CC1)C(=O)O | 3000 |
| CN(C)CCCC/C=C(\NC(=O)C1CC1(C)C)C(=O)O (stereo not given) | 3450 |
| CC1(C)CC1C(=O)N/C(=C\CCCCS(=O)(=O)O)C(=O)O (stereo not given) | 87 |
| CC(=O)NCCCCC/C=C(\NC(=O)C1CC1(C)C)C(=O)O (stereo not given) | 230 |
